Values of other authors in patent US20250215497A1, “IL-8, IL-6, IL-1 Beta and TET2 and DNMT3A in Atherosclerosis” (The Brigham and Women’s Hospital, Inc., priority 2017, published 2025).

How the values were obtained:
IL-1β = conditions: patients with rheumatoid arthritis, low-dose methotrexate (for example from 15 to 20 mg/week)
IL-6 = conditions: patients with rheumatoid arthritis, low-dose methotrexate

CN(Cc1cnc2nc(N)nc(N)c2n1)c1ccc(C(=O)N[C@@H](CCC(=O)O)C(=O)O)cc1 [methotrexate]
effect on IL-1β levels (IL-1β): improve IL-1β levels | effect on IL-6 levels (IL-6): improve IL-6 levels
